{
  "source": "patent US10251845B2",
  "about": "“Fatty acid cysteamine conjugates and their use as activators of autophagy” (Catabasis Pharmaceuticals, Inc., priority 2014, dated 2019)",
  "key": {"LC3-II/LC3-I": {"system": "LC3-II/LC3-I", "assay": "LC3 immunoblotting in Huh-7 cells (autophagy)", "assay_type": "cell-based", "method": "The test compound was first solubilized in 100% DMSO as a 50 mM solution, and then diluted 1 to 100 in FBS as a 10× stock solution of 500 μM.\nHuh-7 cells were seeded in 10% FBS DMEM overnight. The cells media were replaced with drug diluted 1 to 10 in DMEM (final concentration 50 μm in 10% FBS DMEM). Four hours after the drug addition, cells were lysed in RIPA buffer. Cell lysates were analyzed by immunoblotting with anti-LC3A/B antibodies (Cell signaling 12741). Data were presented as LC3-II/LC3-I ratio compared to vehicle treated samples.\nThe same experimental procedure detailed in Example 11 was used, except that 2 hours after the drug addition, cells were lysed in RIPA buffer, instead of the previously described 4 hours. Cell lysates were again analyzed by immunoblotting with anti-LC3A/B antibodies (Cell Signaling Technology 12741). Data were presented as LC3-II/LC3-I ratio compared to vehicle treated samples.\nThis same synergy experiment was repeated in Huh-7 cells after a 4 hour treatment with compound II-2 along with a higher concentration of the individual components (250 μM each of cystamine, EPA or a combination of cystamine and EPA)."}, "[1]": {"assay": "Plasma stability, mouse plasma", "assay_type": "in vitro ADME", "conditions": "5 μM, 0.5, 1 and 2 hour time points", "method": "(§1) The in vitro stability of the test compounds was studied in human, mouse, beagle and rat plasma (plasma was purchased from Bioreclamation). Plasma was diluted to 50% with PBS (pH 7.4). Test compounds were dissolved in DMSO to a final concentration of 10 mM and then diluted to 1 mM in MeOH. Incubations were carried at a test compound concentration of 5 μM with a final DMSO concentration of 2.5%. Plasma (198 μL) was added to 96-well plate and incubated at 37° C. for 30 minutes before the addition of […] of the test compound. The resulting mixture was then incubated at 37° C. for 2 hours. At appropriate time intervals (0, 30, 60 and 120 minutes), aliquots (50 μL) were removed and reactions were terminated by adding 200 μL of acetonitrile with an internal standard. Simultaneously, plasma samples containing Benflourex or Procaine (control compound) were terminated by adding 200 μL of acetonitrile internal standard. The sample plate was centrifuged at 3500 rpm for 45 minutes at 4° C. and the supernatant was transferred to a new plate for analysis by LC/MS-MS (Agilent Model No: HPLC: 1200, MS: 6410). […] A binary gradient consisting of 0.1% formic acid in water and 0.1% formic acid in methanol was used for analyte elution."}, "[2]": {"assay": "Plasma stability, rat plasma", "assay_type": "in vitro ADME", "conditions": "rat plasma, 5 μM, 0.5, 1 and 2 hour time points", "method": "as §1"}, "[3]": {"assay": "Oral cannulated rat PK study (portal and jugular vein)", "assay_type": "in vivo, Sprague Dawley rats", "conditions": "rat, oral; for AUC(0-t) / Cmax: Sprague Dawley", "excerpt": "The compounds of the invention were solubilized in a mixture of excipients consisting 40% Tween, 50% Peceol, 10% PEG400 and diluted with water to form a self-emulsifying aqueous mixture for oral administration to animals. For this study, Sprague Dawley rats that have been surgically implanted with indwelling jugular vein cannula (JVC) and portal vein cannula (PVC) were used (Agilux, Worcester, Mass.). This approach using double-cannulated rats allowed the measurement of the drug concentration that was delivered in the portal vein as well as the drug concentration that was present in the peripheral. For the PK study, serial blood collection was carried out at both the portal and jugular vein at the following time points: 10, 20, 40 min and 1, 2, 4 and 6 hours post dose. The bioanalytical portion of the PK study was carried out using an LC/MS/MS system (Agilent Model No: HPLC: 1200, MS: 6410) and analyzed with the appropriate software (WinNonlin Phoenix 64 6.3.0 395)."}, "ΔF508 CFTR": {"target": "ΔF508 CFTR (Homo sapiens, UniProt P13569, DEL508-508)", "sequence (P13569 with tags, fused parts or gaps DEL508-508)": "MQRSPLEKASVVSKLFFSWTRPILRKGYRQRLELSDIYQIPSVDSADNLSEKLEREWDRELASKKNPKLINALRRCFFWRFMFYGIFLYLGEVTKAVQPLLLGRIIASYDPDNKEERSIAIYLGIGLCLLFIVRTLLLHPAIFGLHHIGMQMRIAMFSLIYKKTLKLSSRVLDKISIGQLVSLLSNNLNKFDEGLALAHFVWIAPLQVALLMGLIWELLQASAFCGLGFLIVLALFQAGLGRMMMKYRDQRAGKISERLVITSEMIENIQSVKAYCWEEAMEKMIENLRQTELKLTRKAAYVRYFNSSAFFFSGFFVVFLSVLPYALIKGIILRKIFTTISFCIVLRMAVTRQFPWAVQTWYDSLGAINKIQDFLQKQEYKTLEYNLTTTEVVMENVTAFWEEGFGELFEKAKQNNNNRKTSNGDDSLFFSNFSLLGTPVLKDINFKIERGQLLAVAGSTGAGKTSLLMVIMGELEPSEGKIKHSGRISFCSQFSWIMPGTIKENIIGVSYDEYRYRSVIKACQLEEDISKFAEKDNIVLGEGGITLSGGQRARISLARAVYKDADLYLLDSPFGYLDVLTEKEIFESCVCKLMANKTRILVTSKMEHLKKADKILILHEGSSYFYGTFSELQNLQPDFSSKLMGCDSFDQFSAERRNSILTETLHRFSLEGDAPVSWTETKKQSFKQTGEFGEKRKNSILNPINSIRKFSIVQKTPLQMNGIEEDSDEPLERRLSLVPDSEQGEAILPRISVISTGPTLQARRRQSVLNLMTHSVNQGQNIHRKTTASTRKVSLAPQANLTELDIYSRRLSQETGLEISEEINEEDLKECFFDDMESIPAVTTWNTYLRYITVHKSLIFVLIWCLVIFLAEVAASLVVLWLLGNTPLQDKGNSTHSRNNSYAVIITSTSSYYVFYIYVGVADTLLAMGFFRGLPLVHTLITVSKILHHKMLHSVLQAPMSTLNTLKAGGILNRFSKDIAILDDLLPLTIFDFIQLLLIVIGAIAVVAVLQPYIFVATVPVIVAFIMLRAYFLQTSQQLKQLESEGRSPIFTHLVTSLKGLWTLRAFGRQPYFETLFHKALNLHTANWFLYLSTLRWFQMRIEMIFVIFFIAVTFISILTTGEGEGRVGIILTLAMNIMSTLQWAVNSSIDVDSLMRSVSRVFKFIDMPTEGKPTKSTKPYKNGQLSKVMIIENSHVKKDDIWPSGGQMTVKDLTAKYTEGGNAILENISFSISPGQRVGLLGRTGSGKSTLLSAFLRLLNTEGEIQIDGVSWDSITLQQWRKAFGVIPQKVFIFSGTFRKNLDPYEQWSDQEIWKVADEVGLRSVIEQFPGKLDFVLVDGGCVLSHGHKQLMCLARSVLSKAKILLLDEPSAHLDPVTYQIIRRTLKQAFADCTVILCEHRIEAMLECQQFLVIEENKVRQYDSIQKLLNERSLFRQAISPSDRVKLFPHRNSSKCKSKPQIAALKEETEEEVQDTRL", "assay": "Ussing chamber short circuit current in Fisher Rat Thyroid epithelial cells overexpressing ΔF508-CFTR", "assay_type": "cell-based", "set-up": "expressed in transfected cells; host or cells: Fisher Rat Thyroid (FRT) epithelial cells, stably transfected", "conditions": "FRT cells, 10 μM, 4 hours", "method": "The most prevalent disease causing mutation of the CF transmembrane conductance regulator (CFTR) chloride channel is the deletion of phenylalanine at position 508 in the primary sequence of CFTR (ΔF508-CFTR). This mutation causes a trafficking defect resulting in a severe reduction of ΔF508-CFTR protein at the cell surface. The trafficking defect can be corrected by incubation at low temperature (27° C. overnight) or pharmacologically by small molecules and CFTR correctors. Chloride transport function of Fisher Rat Thyroid (FRT) epithelial cells overexpressing ΔF508-CFTR in monolayers grown on Snapwell™ filter inserts will be monitored as the CFTR agonist evoked short circuit (ISC) current output of an Ussing epithelial voltage clamp apparatus. An objective of this study is to measure the ability of test compounds to restore function to defective ΔF508-CFTR in FRT epithelial cell monolayers.\nMeasurement of corrector efficacy is divided into two phases. The initial phase is incubation of epithelia with the test compounds for a period of time (that can range from 2 hours to one or two days) in a 37° C. incubator and the second phase is measurement of epithelial ΔF508-CFTR chloride channel current with an epithelial voltage clamp (Ussing assay). The short circuit current (ISC) is measured under short circuit conditions (0 mV transepithelial potential). The ISC magnitude is an index of corrector efficacy and is compared to vehicle and positive control.\nCryopreserved FRT cells stably transfected with ΔF508-CFTR cDNA (Pedemonte et al. (2005) J. CLIN. INVEST., 115, p. 2564-2571) were expanded and plated on Snapwell™ filters for measurement of short circuit current in an Ussing apparatus (Physiologic Instruments, Inc., Sand Diego, Calif.). Cells were grown in Coon's modification of Ham's F-12 media supplemented with zeocin and G-418.\nTo conduct the assay, a compound of the invention was solubilized as follows: • 1) Prepare 25 mM stock solution in 100% DMSO. • 2) Dilute 12 μL of 25 mM stock solution in 1.20 mL of FBS to make 250 μM intermediate dilution 10× stock (1% DMSO, 99% FBS). Gently vortex all solutions until the solution becomes clear. • 3) Prepare final dilution of 10 μM in 10 mL of Coon's media per well (4 wells×2 mL per well bottom+0.2 mL per insert top=8.8 mL and 1.2 mL reserve for handling losses) by addition of 400 μL of 10× stock and 600 μL of 10× carrier (1% DMSO, 99% FBS) to 9000 μL of Coon's media.\nFor this example, the test compound was solubilized and added to the appropriate inserts of Ussing chambers (n=4 for each test compound, final test concentration of 10 μM). A DMSO vehicle control and a positive control (VX-809 at 3 μM) were also used. For this particular example, all the test articles, including the positive control, were incubated with the cells for a period of 4 hours. The FRT cell monolayers grown on Snapwell™ filter inserts were transferred to Physiologic Instruments Ussing recording chambers (Physiologic Instruments, Inc., San Diego, Calif.) and superfused with HB-PS on the basolateral side and 78CF-PS on the apical side. One or more 6-channel or 8-channel Physiologic Instruments VCC MC6 or VCC MC8 epithelial voltage clamps were then used in combination to record the short circuit current (ISC) during the entire run. To initiate the ISC measurement, amphotericin (100 μM) was added to the basolateral side of the Snapwell™ filter insert to permeabilize the epithelial cells for 15 min. Forskolin (10 μM), IBMX (100 μM), Genistein (20 μM) and the CFTRinh-172 (20 μM) were added sequentially after the following incubation periods (15 min, 20 min, 10 min, 15 min and 15 min respectively). Data acquisition and analyses were performed using iWorx data acquisition hardware and Labscribe 2 software (iWorx, Dover, N.H.). […]"}},
  "note": "“Also recorded” adds a separate entry of the source. Where two headings read alike, the source gives them in different places.",
  "data": [
    {"smiles": "CC/C=C\\C/C=C\\C/C=C\\C/C=C\\C/C=C\\CCCC(=O)NCCSSCCNC(=O)c1cccnc1", "note": "[II-2, N-(2-((2-((5Z,8Z,11Z,14Z,17Z)-icosa-5,8,11,14,17-pentaenamido)ethyl)disulfanyl)ethyl)nicotinamide]", "values": [
      {"measurement": "autophagy marker LC3-II (lower band) levels", "setting": "LC3-II/LC3-I; Huh cells, 25 and 50 μM, 4 hours", "value": "increase"},
      {"measurement": "ratio of LC3-II to LC3-I compared to vehicle control", "setting": "LC3-II/LC3-I; Huh-7, 50 μM, 2 hours", "value": "two-fold increase"},
      {"measurement": "autophagy marker LC3-II (lower band)", "setting": "LC3-II/LC3-I; Huh-7, 50 μM, 2 hours, compared with cystamine, EPA or their combination (50 μM each)", "value": "synergistic increase"},
      {"measurement": "activation of autophagy (ratio of LC3-II to LC3-I)", "setting": "LC3-II/LC3-I; Huh-7, 50 μM, 4 hour treatment", "value": "synergistic and higher degree of activation of autophagy"},
      {"measurement": "ratio of LC3-II to LC3-I", "setting": "LC3-II/LC3-I; Huh-7 cells, 25 μM, 4 hours", "value": "increased"},
      {"measurement": "plasma stability (parent compound remaining)", "setting": "[1]", "value": "unstable"},
      {"measurement": "plasma stability (parent compound remaining)", "setting": "[2]", "value": "unstable; also recorded: not stable"},
      {"measurement": "AUC(0-t)", "setting": "[3]; jugular vein blood (peripheral), systemic circulation (jugular vein), read-out: peripheral AUClast", "value": "0.443 ± 0.221", "unit": "ng·h/mL"},
      {"measurement": "Cmax", "setting": "[3]; jugular vein blood (peripheral), systemic circulation (jugular vein), read-out: peripheral Cmax", "value": "0.889 ± 0.33", "unit": "ng/mL"},
      {"measurement": "AUC(0-t)", "setting": "[3]; portal vein blood, portal vein, read-out: portal AUClast", "value": "12.5 ± 6.5", "unit": "ng·h/mL"},
      {"measurement": "Cmax", "setting": "[3]; portal vein blood, portal vein, read-out: portal Cmax", "value": "20.8 ± 9.45", "unit": "ng/mL"},
      {"measurement": "degradation of the parent compound upon oral dosing", "setting": "[3]", "value": "significant amount of the parent compound was degraded"},
      {"measurement": "peripheral AUClast", "setting": "[3]; as restated in Example 23", "value": 0.889, "unit": "ng·h/mL"},
      {"measurement": "functional rescue of CFTR (short circuit current vs vehicle)", "setting": "ΔF508 CFTR", "value": "able to functionally rescue CFTR function"}
    ]}
  ]
}
